Source: PubChem BioAssay (NCI)
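48-hour exposure; five concentrations; linearly interpolated endpoints. At the GI50, growth is halved. TGI: concentration producing complete growth inhibition.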

Tests used:
Test in all cases: NCI anticancer screen, dose series, 48 h
U251 CNS = system: U251 CNS
OVCAR-3 ovarian = system: OVCAR-3 ovarian
HOP-62 NSCLC = system: HOP-62 NSCLC
HT29 colon = system: HT29 colon
LXFL 529 NSCLC = system: LXFL 529 NSCLC
M14 melanoma = system: M14 melanoma
DMS 273 small cell lung = system: DMS 273 small cell lung
SF-295 CNS = system: SF-295 CNS
LOX IMVI melanoma = system: LOX IMVI melanoma
MDA-MB-435 = system: MDA-MB-435

Row | Structure (SMILES) | GI50 (U251 CNS) | TGI (U251 CNS) | GI50 (OVCAR-3 ovarian) | TGI (OVCAR-3 ovarian) | GI50 (HOP-62 NSCLC) | TGI (HOP-62 NSCLC) | GI50 (HT29 colon) | TGI (HT29 colon) | GI50 (LXFL 529 NSCLC) | TGI (LXFL 529 NSCLC) | GI50 (M14 melanoma) | TGI (M14 melanoma) | GI50 (DMS 273 small cell lung) | TGI (DMS 273 small cell lung) | GI50 (SF-295 CNS) | TGI (SF-295 CNS) | GI50 (LOX IMVI melanoma) | TGI (LOX IMVI melanoma) | TGI (MDA-MB-435)
1 | N.N.NCCCCCN.O=C([O-])CCl.O=C([O-])CCl.O=C([O-])CCl.O=C([O-])CCl.[Pt+4].[Pt+4] | 5.06 µM | 40.6 µM | 17 µM | 49.2 µM | 1.36 µM | 12.5 µM | 9.87 µM | 42.4 µM | 17.3 µM | 91.2 µM | 9.28 µM | 33.5 µM | 1.29 µM | > 100 µM | 1.84 µM | 86 µM | 5.93 µM | > 100 µM | –
2 | Nc1nc2c(ncn2C2CCC(CO)O2)c(=O)n1C(=O)c1ccccc1 (configuration not stated) | – | > 100 µM | – | > 100 µM | – | > 100 µM | – | > 100 µM | – | > 100 µM | – | > 100 µM | – | > 100 µM | – | > 100 µM | – | > 100 µM | > 100 µM
3 | O=C1CC(c2c(-c3ccccc3)[nH]c3ccccc23)C(=O)N1 (configuration not stated) | – | > 100 µM | – | > 100 µM | – | > 100 µM | – | > 100 µM | – | > 100 µM | – | > 100 µM | – | > 100 µM | – | > 100 µM | – | – | –
4 | COc1ccc(OC(C)=O)c2c1CCC=CC2=O | – | 32.2 µM | – | 29.3 µM | – | 28 µM | – | 33.7 µM | – | 21.5 µM | – | 19.7 µM | – | 33.8 µM | – | 35.4 µM | – | 17.5 µM | –
5 | COc1ccccc1NC(=O)C1=C(C)NC(C)=C(C(=O)Nc2ccccc2OC)C1C1=CC=COC1 | – | 77.1 µM | – | 9.5 µM | – | > 100 µM | – | 62.7 µM | – | 80 µM | – | 22.5 µM | – | 29.1 µM | – | 40.7 µM | – | – | –
6 | C=C=C(C(=O)OC)S(=O)c1ccccc1[N+](=O)[O-] (configuration not stated) | – | > 100 µM | – | > 100 µM | – | > 100 µM | – | > 100 µM | – | > 100 µM | – | > 100 µM | – | > 100 µM | – | > 100 µM | – | – | –
7 | COC1OC(CO)C(O)C(OC(C)=O)C1NC(=O)N(CCCl)N=O (configuration not stated) | – | – | – | > 100 µM | – | – | – | > 100 µM | – | > 100 µM | – | > 100 µM | – | > 100 µM | – | > 100 µM | – | > 100 µM | –
8 | COC(=O)C(=O)C(C(=O)C(=O)Nc1cccc(C(C)=O)c1)c1nc2ccc([N+](=O)[O-])cc2[nH]c1=O (configuration not stated) | – | > 100 µM | – | – | – | > 100 µM | – | > 100 µM | – | > 100 µM | – | > 100 µM | – | > 100 µM | – | > 100 µM | – | > 100 µM | –
9 | C=CC(=O)NCCSCCCOC1(C(=O)O)CC(O)C(NC(C)=O)C(C(O)C(O)CO)O1 (configuration not stated) | – | > 100 µM | – | > 100 µM | – | – | – | > 100 µM | – | > 100 µM | – | > 100 µM | – | > 100 µM | – | > 100 µM | – | > 100 µM | –
10 | CCN(CC)CC(C)(C)C(=O)/C=C/c1cccc(/C=C/C(=O)C(C)(C)CN(CC)CC)c1 | – | 0.686 µM | – | 2.31 µM | – | 5.14 µM | – | 1.08 µM | – | 1.13 µM | – | 2.82 µM | – | 1.73 µM | – | 3.28 µM | – | 0.37 µM | –
11 | CC1=Nc2ccccc2NC(c2ccoc2)C1 (configuration not stated) | – | > 100 µM | – | > 100 µM | – | > 100 µM | – | > 100 µM | – | > 100 µM | – | > 100 µM | – | > 100 µM | – | > 100 µM | – | > 100 µM | –
12 | Nc1c(-c2cn(Cc3ccccc3)c3ccccc23)[n+]([O-])c2ccccc2[n+]1[O-] | – | > 100 µM | – | 68.4 µM | – | – | – | > 100 µM | – | > 100 µM | – | 74.3 µM | – | 81.8 µM | – | 88.7 µM | – | > 100 µM | –
13 | COc1cccc2ccc(C(=O)c3ccccc3)nc12 | – | > 100 µM | – | > 100 µM | – | > 100 µM | – | – | – | > 100 µM | – | > 100 µM | – | > 100 µM | – | > 100 µM | – | > 100 µM | –
14 | CC1=C(O)c2cn(C)cc2C(=O)C1=O | – | > 100 µM | – | > 100 µM | – | > 100 µM | – | > 100 µM | – | > 100 µM | – | > 100 µM | – | > 100 µM | – | > 100 µM | – | > 100 µM | –
